Experimental data from patent US20060046976A1, “Method for increasing the bone mineral density and bone micro-architecture or connectivity of a mammal using N-acylated glucosamines” (priority 2004, published 2006).

Experiments:
[1] = tested on: non-ovariectomised animals; assay: Wet weight of femurs, non-ovariectomised rats; format: in vivo, rat; settings: oral feeding of GlcNBu, 6 months
Method: Sixteen ovariectomised rats (Charles River Laboratories), approximately 200 g in weight, were randomized into two groups. The control group received 200 mg of glucose, by mouth as single daily doses and the GlcNBu-treated group received 200 mg of GlcNBu by mouth, as single daily doses, for a total period of six (6) months. A similar group of non-ovariectomised animals was fed with GlcNBu or glucose at the same doses. The feeding of the compounds was done in small amounts of peanut butter which was very acceptable to the rats, which were allowed free access to water and rat chow. The animals had the BMDs of the femurs (total or global BMD) and the lumbar spines were estimated at baseline and then at, approximately 2, 4 and 6 months. Consistent position of the femurs was assured with a pre-determined grid. A Hologic 4500 DXA machine, with small animal software, was employed for the study. The animals were lightly anesthetized for each measurement.
At the end of the experiment, the animals were sacrificed, plasma was collected by cardiac puncture, and the femurs removed, fully dissected from adherent tissue and the wet weight was determined. The concentrations of Insulin-like Growth factor I (IGF-1) in the plasma, obtained at the end of the experiment, were determined by a commercial immunological method.

ovariectomised rats = assay: Femoral and spine BMD by DXA in ovariectomised rats fed GlcNBu; format: in vivo, rat; settings: 200 mg GlcNBu by mouth daily, 6 months
Excerpt: This investigation was designed to test the effects of GlcNBu on the BMD of the femurs in an ovariectomised rat model. The experiments performed are described as follows.
FIGS. 1A and 1B show the effect of GlcNBu feeding on femoral BMD with time, over six months, in the ovariectomized rat. Both the top and bottom panels show the mean total designated herein as global BMD of the femurs for the 8 animals in each group, with time. The actual BMD values are shown on the vertical axes. FIG. 1A Glc-O represents the data from the ovariectomised rats fed with glucose and FIG. 1B GlcNBu-O represents data from the ovariectomised rats fed with GlcNBu. The sequential DXA scans for estimating BMD at times 0, 2 months, 4 months and 6 months are illustrated on the horizontal axis and designated as Sequential Scan number 1.0, 2.0. 3.0 and 4.0, respectively.
Sixteen ovariectomised rats (Charles River Laboratories), approximately 200 g in weight, were randomized into two groups. The control group received 200 mg of glucose, by mouth as single daily doses and the GlcNBu-treated group received 200 mg of GlcNBu by mouth, as single daily doses, for a total period of six (6) months. A similar group of non-ovariectomised animals was fed with GlcNBu or glucose at the same doses. […] Consistent position of the femurs was assured with a pre-determined grid. […]

## CCCC(=O)N[C@H]1C(O)O[C@H](CO)[C@@H](O)[C@@H]1O (stereo partly drawn) [GlcNBu, N-butyryl-D-glucosamine]
[1]
  femoral wet weight: increases femoral wet weight
Ovariectomised rats; data not shown
  BMD of the spines vs glucose-fed: the differences were not reach statistical significance
Ovariectomised rats; plateau after 4 months, p<0.05
  femoral BMD (global) plateau vs control (glucose-fed) rats: significantly higher
